Where a SMILES comes first, the peptide text is derived from it. [ ]: non-standard residue; d: D form. Ac6c = NC1(C(=O)O)CCCCC1; Nle = CCCC[C@H](N)C(=O)O; Ac5c = NC1(C(=O)O)CCCC1; Aib = CC(C)(N)C(=O)O
Experiments:
[1] = Human plasma half-life assay; type: in vitro ADME; details: human plasma, 37° C., LC-MS; read-out: Human Plasma T½ (converted)
Description: (§1) B. Human and Rat Plasma Half-Life Assay
(§2) 50 μL was removed at various times, like at 0, 1, 2, 3, 4, 8, 24, 32, 48, 56, 72 hours, mixed with 5 μL formic acid and 150 μL acetonitrile in a microcentrifuge tube, vertexed, and centrifuged for 10 minutes at 10K rpm. The supernatant was transferred to an injection vial and analyzed by LC-MS. The LC-MS system consisted of an API4000 mass spectrometer with an ESI probe. Positive ion mode and full scan detection were used. HPLC separation was carried out on a Luna 3μ C8 (2), 2×30 mm column with a gradient from 90% A to 90% B in 10 minutes at a flow rate of 0.3 ml/min. Buffer A was 1% formic acid in water and buffer B was 1% formic acid acetonitrile.

[2] = Rat plasma half-life assay; type: in vitro ADME; details: rat plasma, 37° C., LC-MS; read-out: Rat Plasma T½ (converted)
Description: as §1, §2

With `CC[C@H](C)[C@H](NC(=O)[C@H](CCCCN)NC(=O)[C@H](CC(=O)O)NC(=O)[C@H](CCSC)NC(=O)[C@H](C)NC(=O)C(C)(C)NC(=O)[C@H](CO)NC(=O)[C@H](Cc1ccc(O)cc1)NC(=O)[C@H](CC(=O)O)NC(=O)[C@H](CO)NC(=O)[C@@H](NC(=O)[C@H](Cc1ccccc1)NC(=O)[C@@H](NC(=O)CNC(=O)[C@H](CCC(=O)O)NC(=O)C(C)(C)NC(=O)[C@@H](N)Cc1ccc(O)cc1)[C@@H](C)O)[C@@H](C)CC)C(=O)N[C@@H](Cc1c[nH]cn1)C(=O)N[C@@H](CCC(N)=O)C(=O)N[C@@H](CCC(N)=O)C(=O)N[C@@H](CC(=O)O)C(=O)N[C@@H](Cc1ccccc1)C(=O)N[C@H](C(=O)N[C@@H](CC(N)=O)C(=O)N[C@@H](Cc1c[nH]c2ccccc12)C(=O)N[C@@H](CC(C)C)C(=O)N[C@@H](CC(C)C)C(=O)N[C@@H](C)C(=O)N[C@@H](CCC(N)=O)C(=O)N[C@@H](CCCCN)C(N)=O)C(C)C` [Example 20, (Aib^2, 12)hGIP(1-30)-NH2] (H-Y[Aib]EGTFISDYS[Aib]AMDKIHQQDFVNWLLAQK-NH2; N-terminus assumed) the half-life at 0.1 mg/ml [1] was 25.4 h and the half-life at 0.1 mg/ml [2] was 42 h.

With `CCCC[C@H](NC(=O)[C@H](C)NC(=O)[C@@H](NC(=O)[C@H](CO)NC(=O)[C@H](Cc1ccc(O)cc1)NC(=O)[C@H](CC(=O)O)NC(=O)[C@H](CO)NC(=O)C1(NC(=O)[C@H](Cc2ccccc2)NC(=O)[C@@H](NC(=O)CNC(=O)[C@H](CCC(=O)O)NC(=O)C(C)(C)NC(=O)[C@@H](N)Cc2ccc(O)cc2)[C@@H](C)O)CCCCC1)[C@@H](C)CC)C(=O)N[C@@H](CC(=O)O)C(=O)N[C@@H](CCCCN)C(=O)N[C@H](C(=O)N[C@@H](Cc1c[nH]cn1)C(=O)N[C@@H](CCC(N)=O)C(=O)N[C@@H](CCC(N)=O)C(=O)N[C@@H](CC(=O)O)C(=O)N[C@@H](Cc1ccccc1)C(=O)N[C@H](C(=O)N[C@@H](CC(N)=O)C(=O)N[C@@H](Cc1c[nH]c2ccccc12)C(=O)N[C@@H](CC(C)C)C(=O)N[C@@H](CC(C)C)C(=O)N[C@@H](C)C(=O)N[C@@H](CCC(N)=O)C(=O)N[C@@H](CCCCN)C(N)=O)C(C)C)[C@@H](C)CC` [Example 31, (Aib^2, A6c^7, Nle^14)hGIP(1-30)-NH2] (H-Y[Aib]EGTF[Ac6c]SDYSIA[Nle]DKIHQQDFVNWLLAQK-NH2; N-terminus assumed) the half-life at 0.1 mg/ml [1] was 36.5 h and the half-life at 0.1 mg/ml [2] was 31.4 h.

`CCCC[C@H](NC(=O)[C@H](C)NC(=O)[C@@H](NC(=O)[C@H](CO)NC(=O)[C@H](Cc1ccc(O)cc1)NC(=O)[C@H](CC(=O)O)NC(=O)[C@H](CO)NC(=O)C1(NC(=O)[C@H](Cc2ccccc2)NC(=O)[C@@H](NC(=O)CNC(=O)[C@H](CCC(=O)O)NC(=O)C(C)(C)NC(=O)[C@@H](N)Cc2ccc(O)cc2)[C@@H](C)O)CCCC1)[C@@H](C)CC)C(=O)N[C@@H](CC(=O)O)C(=O)N[C@@H](CCCCN)C(=O)N[C@H](C(=O)N[C@@H](Cc1c[nH]cn1)C(=O)N[C@@H](CCC(N)=O)C(=O)N[C@@H](CCC(N)=O)C(=O)N[C@@H](CC(=O)O)C(=O)N[C@@H](Cc1ccccc1)C(=O)N[C@H](C(=O)N[C@@H](CC(N)=O)C(=O)N[C@@H](Cc1c[nH]c2ccccc12)C(=O)N[C@@H](CC(C)C)C(=O)N[C@@H](CC(C)C)C(=O)N[C@@H](C)C(=O)N[C@@H](CCC(N)=O)C(=O)N[C@@H](CCCCN)C(N)=O)C(C)C)[C@@H](C)CC` [Example 32, (Aib^2, A5c^7, Nle^14)hGIP(1-30)-NH2] (H-Y[Aib]EGTF[Ac5c]SDYSIA[Nle]DKIHQQDFVNWLLAQK-NH2; N-terminus assumed) gave a half-life at 0.1 mg/ml [1] of over 48 h and a half-life at 0.1 mg/ml [2] of 28.3 h.

`CCCC[C@H](NC(=O)[C@H](C)NC(=O)[C@@H](NC(=O)C(C)(C)NC(=O)[C@H](Cc1ccc(O)cc1)NC(=O)[C@H](CC(=O)O)NC(=O)[C@H](CO)NC(=O)[C@@H](NC(=O)[C@H](Cc1ccccc1)NC(=O)[C@@H](NC(=O)CNC(=O)[C@H](CCC(=O)O)NC(=O)C(C)(C)NC(=O)[C@@H](N)Cc1ccc(O)cc1)[C@@H](C)O)[C@@H](C)CC)[C@@H](C)CC)C(=O)N[C@@H](CC(=O)O)C(=O)N[C@@H](CCCCN)C(=O)N[C@H](C(=O)N[C@@H](Cc1c[nH]cn1)C(=O)N[C@@H](CCC(N)=O)C(=O)N[C@@H](CCC(N)=O)C(=O)N[C@@H](CC(=O)O)C(=O)N[C@@H](Cc1ccccc1)C(=O)N[C@H](C(=O)N[C@@H](CC(N)=O)C(=O)N[C@@H](Cc1c[nH]c2ccccc12)C(=O)N[C@@H](CC(C)C)C(=O)N[C@@H](CC(C)C)C(=O)N[C@@H](C)C(=O)N[C@@H](CCC(N)=O)C(=O)N[C@@H](CCCCN)C(N)=O)C(C)C)[C@@H](C)CC` [Example 33, (Aib^2, 11, Nle^14)hGIP(1-30)-NH2] (H-Y[Aib]EGTFISDY[Aib]IA[Nle]DKIHQQDFVNWLLAQK-NH2; N-terminus assumed) showed a half-life at 0.1 mg/ml [1] of over 48 h and a half-life at 0.1 mg/ml [2] of 34 h.

Work on `CCCC[C@H](NC(=O)[C@H](C)NC(=O)[C@@H](NC(=O)[C@H](CO)NC(=O)[C@H](Cc1ccc(O)cc1)NC(=O)[C@H](CC(=O)O)NC(=O)[C@H](CO)NC(=O)C1(NC(=O)[C@H](Cc2ccccc2)NC(=O)[C@@H](NC(=O)CNC(=O)[C@H](CCC(=O)O)NC(=O)C2(NC(=O)[C@@H](N)Cc3ccc(O)cc3)CCCC2)[C@@H](C)O)CCCC1)[C@@H](C)CC)C(=O)N[C@@H](CC(=O)O)C(=O)N[C@@H](CCCCN)C(=O)N[C@H](C(=O)N[C@@H](Cc1c[nH]cn1)C(=O)N[C@@H](CCC(N)=O)C(=O)N[C@@H](CCC(N)=O)C(=O)N[C@@H](CC(=O)O)C(=O)N[C@@H](Cc1ccccc1)C(=O)N[C@H](C(=O)N[C@@H](CC(N)=O)C(=O)N[C@@H](Cc1c[nH]c2ccccc12)C(=O)N[C@@H](CC(C)C)C(=O)N[C@@H](CC(C)C)C(=O)N[C@@H](C)C(=O)N[C@@H](CCC(N)=O)C(=O)N[C@@H](CCCCN)C(N)=O)C(C)C)[C@@H](C)CC` [Example 34, (A5c^2,7, Nle^14)hGIP(1-30)-NH2] (H-Y[Ac5c]EGTF[Ac5c]SDYSIA[Nle]DKIHQQDFVNWLLAQK-NH2; N-terminus assumed) yielded a half-life at 0.1 mg/ml [1] of over 48 h and a half-life at 0.1 mg/ml [2] of 23 h.

`CC[C@H](C)[C@H](NC(=O)[C@H](CO)NC(=O)[C@H](Cc1ccc(O)cc1)NC(=O)[C@H](CC(=O)O)NC(=O)[C@H](CO)NC(=O)C1(NC(=O)[C@H](Cc2ccccc2)NC(=O)[C@@H](NC(=O)CNC(=O)[C@H](CCC(=O)O)NC(=O)C(C)(C)NC(=O)[C@@H](N)Cc2ccc(O)cc2)[C@@H](C)O)CCCC1)C(=O)N[C@@H](C)C(=O)NC1(C(=O)N[C@@H](CC(=O)O)C(=O)N[C@@H](CCCCN)C(=O)N[C@H](C(=O)N[C@@H](Cc2c[nH]cn2)C(=O)N[C@@H](CCC(N)=O)C(=O)N[C@@H](CCC(N)=O)C(=O)N[C@@H](CC(=O)O)C(=O)N[C@@H](Cc2ccccc2)C(=O)N[C@H](C(=O)N[C@@H](CC(N)=O)C(=O)N[C@@H](Cc2c[nH]c3ccccc23)C(=O)N[C@@H](CC(C)C)C(=O)N[C@@H](CC(C)C)C(=O)N[C@@H](C)C(=O)N[C@@H](CCC(N)=O)C(=O)N[C@@H](CCCCN)C(N)=O)C(C)C)[C@@H](C)CC)CCCC1` [Example 35, (Aib^2, A5c^7, 14)hGIP(1-30)-NH2] (H-Y[Aib]EGTF[Ac5c]SDYSIA[Ac5c]DKIHQQDFVNWLLAQK-NH2; N-terminus assumed) showed a half-life at 0.1 mg/ml [1] of over 48 h and a half-life at 0.1 mg/ml [2] of 39.4 h.

Compound `CCCC[C@H](NC(=O)[C@H](C)NC(=O)[C@@H](NC(=O)[C@H](CO)NC(=O)[C@H](Cc1ccc(O)cc1)NC(=O)[C@H](CC(=O)O)NC(=O)[C@H](CO)NC(=O)C1(NC(=O)[C@H](Cc2ccccc2)NC(=O)[C@@H](NC(=O)CNC(=O)[C@H](CCC(=O)O)NC(=O)C2(NC(=O)[C@@H](N)Cc3ccc(O)cc3)CCCCC2)[C@@H](C)O)CCCCC1)[C@@H](C)CC)C(=O)N[C@@H](CC(=O)O)C(=O)N[C@@H](CCCCN)C(=O)N[C@H](C(=O)N[C@@H](Cc1c[nH]cn1)C(=O)N[C@@H](CCC(N)=O)C(=O)N[C@@H](CCC(N)=O)C(=O)N[C@@H](CC(=O)O)C(=O)N[C@@H](Cc1ccccc1)C(=O)N[C@H](C(=O)N[C@@H](CC(N)=O)C(=O)N[C@@H](Cc1c[nH]c2ccccc12)C(=O)N[C@@H](CC(C)C)C(=O)N[C@@H](CC(C)C)C(=O)N[C@@H](C)C(=O)N[C@@H](CCC(N)=O)C(=O)N[C@@H](CCCCN)C(N)=O)C(C)C)[C@@H](C)CC` [Example 36, (A6c^2,7, Nle^14)hGIP(1-30)-NH2] (H-Y[Ac6c]EGTF[Ac6c]SDYSIA[Nle]DKIHQQDFVNWLLAQK-NH2; N-terminus assumed) has a half-life at 0.1 mg/ml [1] of 23.7 h and a half-life at 0.1 mg/ml [2] of 29.2 h.

Work on `CC[C@H](C)[C@H](NC(=O)[C@H](CO)NC(=O)[C@H](Cc1ccc(O)cc1)NC(=O)[C@H](CC(=O)O)NC(=O)[C@H](CO)NC(=O)C1(NC(=O)[C@H](Cc2ccccc2)NC(=O)[C@@H](NC(=O)CNC(=O)[C@H](CCC(=O)O)NC(=O)C(C)(C)NC(=O)[C@@H](N)Cc2ccc(O)cc2)[C@@H](C)O)CCCCC1)C(=O)N[C@@H](C)C(=O)NC1(C(=O)N[C@@H](CC(=O)O)C(=O)N[C@@H](CCCCN)C(=O)N[C@H](C(=O)N[C@@H](Cc2c[nH]cn2)C(=O)N[C@@H](CCC(N)=O)C(=O)N[C@@H](CCC(N)=O)C(=O)N[C@@H](CC(=O)O)C(=O)N[C@@H](Cc2ccccc2)C(=O)N[C@H](C(=O)N[C@@H](CC(N)=O)C(=O)N[C@@H](Cc2c[nH]c3ccccc23)C(=O)N[C@@H](CC(C)C)C(=O)N[C@@H](CC(C)C)C(=O)N[C@@H](C)C(=O)N[C@@H](CCC(N)=O)C(=O)N[C@@H](CCCCN)C(N)=O)C(C)C)[C@@H](C)CC)CCCCC1` [Example 39, (Aib^2, A6c^7, 14)hGIP(1-30)-NH2] (H-Y[Aib]EGTF[Ac6c]SDYSIA[Ac6c]DKIHQQDFVNWLLAQK-NH2; N-terminus assumed) yielded a half-life at 0.1 mg/ml [1] of 42.3 h and a half-life at 0.1 mg/ml [2] of 43.3 h.

From patent US9074014B2 (Ipsen Pharma S.A.S., priority 2008, dated 2015)
